In patent publication US20250215029A1 (Recludix Pharma, Inc., priority 2022, published 2025):

Each compound was assayed against T1, pY705-STAT3 in PBMC (Homo sapiens, UniProt P40763) (assay: MSD-pSTAT-PBMC Assay (pSTAT3, IL-6 stimulated)). Conditions: PBMC, compound 3 hrs, then 10 ng/mL IL-6 for 10 min; Table 115; read-out: STAT3.
T1 construct: Cryopreserved Peripheral Blood Mononuclear Cells (PBMC) are from AllCells; host or cells: cryopreserved PBMC
T1 sequence (P40763 whole entry): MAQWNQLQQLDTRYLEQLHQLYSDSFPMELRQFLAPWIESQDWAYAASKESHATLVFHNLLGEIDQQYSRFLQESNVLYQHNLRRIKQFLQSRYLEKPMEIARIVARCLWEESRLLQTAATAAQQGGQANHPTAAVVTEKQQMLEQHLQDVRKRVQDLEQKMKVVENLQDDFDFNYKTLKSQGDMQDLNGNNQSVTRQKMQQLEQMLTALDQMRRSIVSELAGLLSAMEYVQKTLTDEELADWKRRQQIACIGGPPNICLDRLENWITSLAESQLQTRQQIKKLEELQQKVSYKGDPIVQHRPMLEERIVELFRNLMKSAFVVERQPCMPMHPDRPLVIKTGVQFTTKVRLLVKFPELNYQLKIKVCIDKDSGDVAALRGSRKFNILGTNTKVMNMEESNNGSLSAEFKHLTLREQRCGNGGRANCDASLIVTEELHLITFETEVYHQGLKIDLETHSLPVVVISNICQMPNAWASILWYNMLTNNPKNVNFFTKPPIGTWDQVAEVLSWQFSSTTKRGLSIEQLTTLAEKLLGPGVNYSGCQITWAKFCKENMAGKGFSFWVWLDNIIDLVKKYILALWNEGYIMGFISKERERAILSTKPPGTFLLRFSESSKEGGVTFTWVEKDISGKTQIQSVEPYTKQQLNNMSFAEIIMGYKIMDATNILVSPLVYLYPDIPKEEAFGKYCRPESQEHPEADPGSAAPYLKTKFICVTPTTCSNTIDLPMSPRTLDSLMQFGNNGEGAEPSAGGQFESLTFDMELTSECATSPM
Assay type: cell-based
Source text: Cryopreserved Peripheral Blood Mononuclear Cells (PBMC) are from AllCells. Recombinant Human IL-4 and IL-6 are from Peprotech. Mouse monoclonal anti-STAT3 antibody, rabbit monoclonal anti-pY705-STAT3 antibody, rabbit monoclonal Anti-pY641-STAT6 antibody, and lysis buffer are from Cell Signaling Technology (CST). Mouse monoclonal anti-STAT6 antibody is from BioLegend. Assay plates, blocker, and anti-rabbit secondary antibody are from Meso Scale Discovery (MSD).
Cyropreserved PBMCs were thawed out and allowed to recover overnight in IMDM+10% heat-inactivated FBS prior to plating 50,000 (STAT3) or 25,000 (STAT6) cells per well in 96-well U-bottom tissue culture plates. Cells were treated with compound for 3 hrs, then stimulated with 10 ng/mL IL-6 (STAT3) or 1 ng/mL IL-4 (STAT6) for 10 min. Cells were then spun down and washed with ice-cold PBS prior to lysing the cell pellet with 1× lysis buffer (CST) with 1× HALT protease and phosphatase inhibitor cocktail (Thermo). Lysates were transferred to and incubated overnight at 4° C. with shaking in QuickPlex 96-well high bind assay plates (MSD) pre-coated overnight with 30 μL per well of 0.6 μg/mL mouse monoclonal anti-STAT3 antibody (STAT3) or 2 μg/mL mouse monoclonal anti-STAT6 antibody (STAT6) in 1× PBS, and pre-blocked for 1 hour with 3% Blocker-A (MSD). Captured protein in the assay plates were then washed and probed with 25 μL per well of […] rabbit monoclonal anti-pY705-STAT3 antibody (STAT3) or 0.18 μg/ml rabbit monoclonal Anti-pY641-STAT6 antibody (STAT6) in 1% Blocker-A for 1 hour at room temperature with shaking, then washed and probed with 25 ul per well of 1 ug/ml Sulfo-TAG Labeled Goat Anti-Rabbit Antibody (MSD) in 1% Blocker-A for 1 hour at room temperature with shaking. Assay plates were then washed and 150 μL of 1× Read Buffer-T (MSD) was added to each well prior to reading on an SQ120 MSD Plate Reader. Assay signal from each sample was subtracted by the signal from unstimulated control wells and normalized to DMSO control wells. IC50 values were calculated using Graph Pad Prism Dose-Response Nonlinear Regression with variable slope. For both pSTAT3 and pSTAT6 A=≤100 nM; B 100-1000 nM; C=>1000-3000 nM; D=>3 μM; and NT=Not Tested.
With `CCCOC(=O)[C@H](C)N[P@](=O)(Oc1ccccc1)[C@@H](F)c1ccc2sc(C(=O)N[C@H]3C[C@@H](C)C[C@H]4CC[C@@H](C(=O)N5CC(c6cnccc6OC(C)C)C5)N4C3=O)cc2c1` (single isomer, unassigned) [Compound 1033] the IC50 was < 100 nM. With `CCCOC(=O)[C@H](C)N[P@](=O)(Oc1ccccc1)[C@@H](F)c1ccc2sc(C(=O)N[C@H]3C[C@@H](C)C[C@H]4CC[C@@H](C(=O)N5CC(c6cnccc6OC(C)C)C5)N4C3=O)cc2c1` (single isomer, unassigned) [Compound 1034] the IC50 was < 100 nM. For `CCCOC(=O)[C@H](C)N[P@](=O)(Oc1ccccc1)[C@@H](F)c1ccc2sc(C(=O)N[C@H]3CCC[C@H]4CC[C@@H](C(=O)N5CC(c6cnccc6C)C5)N4C3=O)cc2c1` (single isomer, unassigned) [Compound 1035], the IC50 was < 100 nM. With `CCCOC(=O)[C@H](C)N[P@@](=O)(Oc1ccccc1)[C@@H](F)c1ccc2sc(C(=O)N[C@H]3C[C@@H](C)C[C@H]4CC[C@@H](C(=O)N5CC(c6cnccc6C)C5)N4C3=O)cc2c1` (single isomer, unassigned) [Compound 1036] the IC50 was < 100 nM. With `CCCOC(=O)[C@H](C)N[P@@](=O)(Oc1ccccc1)[C@@H](F)c1ccc2sc(C(=O)N[C@H]3C[C@@H](C)C[C@H]4CC[C@@H](C(=O)N5CC(c6cnccc6C)C5)N4C3=O)cc2c1` (single isomer, unassigned) [Compound 1037] the IC50 was < 100 nM. With `CCCOC(=O)[C@H](C)N[P@@](=O)(Oc1ccccc1)[C@@H](F)c1ccc2sc(C(=O)N[C@H]3CCC[C@H]4CC[C@@H](C(=O)N5CC(c6cnccc6OC)C5)N4C3=O)cc2c1` (single isomer, unassigned) [Compound 1039] the IC50 was < 100 nM. With `CCCOC(=O)[C@H](C)N[P@@](=O)(Oc1ccccc1)[C@@H](F)c1ccc2sc(C(=O)N[C@H]3C[C@H](C)C[C@H]4CC[C@@H](C(=O)N5CC(c6cnccc6OC)C5)N4C3=O)cc2c1` (single isomer, unassigned) [Compound 1040] the IC50 was < 100 nM. For `CCCOC(=O)[C@H](C)N[P@@](=O)(Oc1ccccc1)[C@@H](F)c1ccc2sc(C(=O)N[C@H]3C[C@H](C)C[C@H]4CC[C@@H](C(=O)N5CC(c6cnccc6OC)C5)N4C3=O)cc2c1` (single isomer, unassigned) [Compound 1041], the IC50 was < 100 nM. For `CCCOC(=O)[C@H](C)N[P@](=O)(Oc1ccccc1)[C@H](F)c1ccc2sc(C(=O)N[C@H]3CCC[C@H]4CC[C@@H](C(=O)N5CC(c6cnccc6N6CCOCC6)C5)N4C3=O)cc2c1` (single isomer, unassigned) [Compound 1044], the IC50 was < 100 nM. Work on `CCCOC(=O)[C@H](C)N[P@](=O)(Oc1ccccc1)[C@@H](F)c1ccc2sc(C(=O)N[C@H]3CCC[C@H]4CC[C@@H](C(=O)N5CC(c6cnccc6N6CCOCC6)C5)N4C3=O)cc2c1` (single isomer, unassigned) [Compound 1046] yielded an IC50 of 100 to 1000 nM. Compound `CCCOC(=O)[C@H](C)N[P@](=O)(Oc1ccccc1)[C@@H](F)c1ccc2sc(C(=O)N[C@H]3CCC[C@H]4CC[C@@H](C(=O)N5CC(c6cnccc6N6CCOCC6)C5)N4C3=O)cc2c1` (single isomer, unassigned) [Compound 1047] has an IC50 of 100 to 1000 nM. In the case of `CCCOC(=O)[C@H](C)N[P@](=O)(Oc1ccccc1)[C@H](F)c1ccc2sc(C(=O)N[C@H]3C[C@@H](C)C[C@H]4CC[C@@H](C(=O)N5CC(c6cnccc6C)C5)N4C3=O)cc2c1` (single isomer, unassigned) [Compound 1048], the IC50 is reported as < 100 nM. For `CCCOC(=O)[C@H](C)N[P@@](=O)(Oc1ccccc1)[C@H](F)c1ccc2sc(C(=O)N[C@H]3CCC[C@H]4CC[C@@H](C(=O)N5CC(c6cnccc6C)C5)N4C3=O)cc2c1` (single isomer, unassigned) [Compound 1049], the IC50 was < 100 nM. `COc1ccncc1C1CN(C(=O)[C@@H]2CC[C@@H]3CCC[C@H](NC(=O)c4cc5cc([C@H](F)[P@@](=O)(N[C@@H](C)C(=O)OCc6ccccc6)Oc6ccccc6)ccc5s4)C(=O)N32)C1` (single isomer, unassigned) [Compound 1050] gave an IC50 of 100 to 1000 nM.
